By melting point is commonly meant the temperature, or range, at which the solid turns liquid.

A value given as a limit tells only on which side of the number the result lay.

As to `Nc1nccc(C=Cc2ccc([N+](=O)[O-])cc2)n1`, the melting point lay within 214 to 216 °C.

The compound `CN1C(=O)C2(COc3cc4c(cc32)OCCO4)c2c(NC(=O)C3CCCCC3)cccc21` (configuration not stated) displayed a melting point of 96 to 98 °C.

For the compound `CSc1cc(C(F)(F)F)nn1-c1ccc(NC(=O)c2cccnc2F)cc1`, the melting point lay in the range of 167 to 168 °C.

In turn, `C=Cc1c(C(=O)O)nc(Cl)c(F)c1N` registered a melting point of 164 to 166 °C.

As for `Cc1c(CNCC(C)C)n(C)c2ccc(NC(=O)c3ccc(OCC4CC4)cc3)cc12`, the melting point was 142 to 143 °C.

`NC(CO)COc1ccc(Oc2ccccc2)cc1` (configuration not stated): the melting point was found to be 61.9 °C.

For the compound `COCn1c(Cl)c(Cl)c(C#N)c1Cl`, the melting point was 48 to 49 °C.

Take `CCOC(=O)c1cc(=O)c2cc(N3CCOCC3)c(=O)ccc2n1C`: the melting point fell in the range of 170 to 172 °C.

`CC(C)(C)OC(=O)CN1C(=O)C(N2C(=O)c3ccccc3C2=O)CCc2ccccc21` (configuration not stated) registered a melting point of 194 to 197 °C.

The compound `COc1ccccc1Cc1nc2ccccc2c(=O)n1CCO` displayed a melting point of 154 to 155 °C.

`Cc1nc(C#N)nc(NCC(F)(F)F)c1I` gave a melting point of 103 to 105 °C.

`COc1ccc2c(c1)N(Cc1ccccc1)C(=O)[C@H]1CCC[C@H]1N2C(=O)CN1C(=O)c2ccccc2C1=O` (relative stereo) yielded a melting point of 244 to 245 °C.

For the compound `CC1CCc2cc(F)cc3c(=O)c(C(=O)Cl)cn1c23` (configuration not stated), the melting point lay in the range of 183 to 186 °C.

`CCOC(=O)c1cn(C2CC2)c2c(C)c(N3CCN(C)CC3)c(F)c(Cl)c2c1=O`: the melting point was 175 to 177 °C.

The compound `CCOC(=O)c1c(O)c2cnc(-c3ccccc3)nc2n(CC)c1=O` came in with a melting point of 177 to 180 °C.

As to `COc1ccc(CCNC(=O)C2CCC2)cc1C`, the melting point lay within 103 to 104 °C.

For the compound `Cc1cc(F)ccc1-c1cscc1-c1ccc(S(C)(=O)=O)cc1`, the melting point was 158 to 160 °C.

Turning to `CCN1CCC(=O)N(c2ccc(Cl)cc2C)C1=S`, the melting point was in the range of 133 to 136 °C.

The compound `CC(=O)C(=CNc1cc(Cl)cc(C(=O)O)c1Cl)C(C)=O` gave a melting point of 244 to 246 °C.

`COc1cc2onc(-c3ccccc3F)c2cc1Cl`: the melting point lay in the range of 165 to 166 °C.

Take `COc1nc(-c2ccc(F)cc2)c(-c2ccc(S(C)(=O)=O)cc2)cc1C#N`: the melting point was 202 to 204 °C.

In the case of `CC(=O)OCc1nc2cc(Cl)c(C)cc2c(=O)n1C`, the melting point is 110 to 112 °C.

Regarding `CCOC(=O)COc1cnc(S)nc1O`, the melting point fell in the range of 157 to 160 °C.

The compound `COc1ccc(CN(C(=O)C(F)(F)F)c2cc(F)cc(C#N)c2)cc1` yielded a melting point of 102 to 103 °C.

Compound `O=C(NC1CCCCC1)N[C@H]1C[C@H](C(=O)O)Nc2cc(Cl)cc(Cl)c21` (relative stereo) came in with a melting point of 217 to 219 °C.

Compound `c1ccc(COc2ccc(OCC3CC3)cc2)cc1` had a melting point of 96 °C.

As to `CC(C)(C)NC(=O)c1nn(-c2ccc(Br)cc2)c2c1[C@@H]1CC[C@H]2C1`, the melting point lay in the range of 148 to 149 °C.

`CCOC(=O)C=C1c2ccccc2C=C(OC)c2sccc21` had a melting point of 91 to 93 °C.

In turn, `CC(C)CN(Cc1nc(-c2ncn3c2[C@@H]2CCN2C(=O)c2c(Cl)cccc2-3)no1)CC(C)C` had a melting point of 125 to 140 °C.

With `NC(=O)CCc1cc(-c2ccncc2)sc1-c1ccncc1`, the melting point came to 196 °C.

In turn, `COc1ccc(N2CCN(CCC(O)COc3ccccc3)CC2)cc1` (configuration not stated) displayed a melting point of 95 to 97 °C.

As for `O=C1N=C2C(=O)SC=C2N1`, the melting point lay in the range of 177 to 180 °C.

`COC(C)=CC(=O)Nc1cccc(OC(=O)NC2CCCCC2)c1` gave a melting point of 200 °C.

Turning to `COc1ccc(C(=O)c2c(-c3ccc(OCCN4CCCC4)cc3)sc3cc(OCc4ccccc4)ccc23)cc1OC`, the melting point was 74 to 77 °C.

For `O=C(NCc1ccc(Cl)cc1)c1cnc2c(I)cc(CO)cc2c1O`, the melting point was in the range of 283 to 286 °C.

`CC[C@@H](c1ccccc1)N(Cc1ccc(C(=O)NCC(=O)O)cc1)S(=O)(=O)c1ccc(Cl)cc1` had a melting point of 136 to 139 °C.

Compound `Cc1ccccc1-c1c(CNC(=O)Nc2ccc(F)cc2F)oc2ccc(Cl)cc12` displayed a melting point of 178 to 180 °C.

Compound `CCOC(=O)c1c(C)nc(NN)c2nnn(CC)c12` came in with a melting point of 75 to 78 °C.

`CC(=O)c1ccc(-c2ccc(Br)cc2F)cc1`: the melting point lay within 94.5 to 95.5 °C.

Regarding `CC(CO)(c1ccc(Cl)cc1)N1CCN(c2ccc(CO)c(Cl)c2)CC1` (configuration not stated), the melting point is 126 to 130 °C.

Compound `Cc1c(C)c(N2CCN(c3ccc(S(C)=O)cc3)CC2)c(C)c2c1OC(C)(C)C2` (configuration not stated) showed a melting point of 223 to 227 °C.

The compound `Cc1cc2c(Cl)cc(F)c(-n3c(=O)cc(C(F)(F)F)n(C)c3=O)c2o1` came in with a melting point of 196 to 197 °C.

As for `Cc1onc(NS(=O)(=O)c2ccccc2-c2ccc(-c3ncco3)cc2CN(C)C(=O)CC(C)(C)C)c1C`, the melting point was 120 to 128 °C.

Regarding `Nc1nc(-c2cccnc2Cl)c(-c2cccnc2Cl)s1`, the melting point lay within 273 to 274 °C.

On to `CC#CCOc1ccc(SC(C(=O)NO)C(C)C)cc1` (configuration not stated), for which the melting point came to 128 °C.

`CCn1nc(-c2ccccc2)c(C(C)=O)c(Nc2ccc([N+](=O)[O-])cn2)c1=O` yielded a melting point of 200 to 201 °C.

`N#Cc1ccc([C@@H]2[C@@H]3C(=O)N(CC4CCCCC4)C(=O)[C@@H]3[C@H]3CCCN32)cc1` (racemic) displayed a melting point of 119 to 122 °C.

As to `CCN1C(=O)CN(C(=O)C(F)(F)F)Cc2cc(OC)c([N+](=O)[O-])cc21`, the melting point is 128 to 129 °C.

As to `Cc1cc(SCc2ccc(OCc3ccc(C(F)(F)F)cc3)cc2)ccc1OCC(=O)O`, the melting point worked out at 133 °C.

In turn, `O=C(c1ccc(O)cc1)c1c(-c2ccccc2)sc2ccccc12` had a melting point of 163 to 165 °C.

In turn, `Cc1ccc(COc2ccc(CC(NC(=O)c3cn4ccc(-c5ccc(Cl)cc5)cc4n3)C(=O)O)cc2)cc1` (configuration not stated) returned a melting point of 262 °C.

On to `CC(=O)OC1CSC(Oc2ccc(-c3cccnc3C)nc2)C(OC(C)=O)C1OC(C)=O` (configuration not stated), for which the melting point is 198 to 200 °C.

Take `COc1cc2cc3c(Nc4ccc(Sc5nccn5C)c(Cl)c4)c(C#N)cnc3cc2cc1OCCN1CCOCC1`: the melting point was greater than 300 °C.

With `CC(=O)Cn1c(CO)nc(C(C)C)c1Sc1cc(Cl)cc(Cl)c1`, the melting point fell in the range of 165 to 167 °C.

For the compound `O=C(O)c1cc2c(-c3ccncc3)nccc2[nH]c1=O`, the melting point was greater than 300 °C.

Regarding `CCOC(=O)COc1ccc(NC(=O)OC(C)(C)C)cc1Cl`, the melting point is 119 to 120 °C.

`COc1ccc(/C=C/c2c(Cl)cncc2Cl)c2c1OCCCO2` came in with a melting point of 118 to 120 °C.

`COC(=O)c1cc(N=C2C=CC(=O)C=C2)c(F)c(-c2ccc(Cl)cc2)n1` had a melting point of 154 to 156 °C.

For `Cn1cc(-c2cnc3c(c2)ncn3Cc2ccc3ncccc3c2)cn1`, the melting point was in the range of 150 to 152 °C.

In turn, `Cc1nc2cccc3n(CC4CCN(S(=O)(=O)C(F)(F)F)CC4)c(=O)c1n23` came in with a melting point of 150 to 152 °C.

Compound `CCCN(C(C)C)[C@H]1COc2c(F)ccc(C(N)=O)c2C1` registered a melting point of 139 to 140 °C.

Compound `CN(CCN1C(=O)c2ccccc2C1=O)C(c1ccccc1)c1ccccc1` had a melting point of 130 to 131 °C.

Source of the values: a melting point compilation (Tetko et al.; mined from patent text by program, amines drawn as free bases though some values may be those of a salt).
